Where two headings read alike, the source gives them in different places.
Columns and labels:
[1] = molecular target: acidic FGF (aFGF) (Homo sapiens, UniProt P05230); assay: biochemical; conditions: for Approx. Molar Ratio (ligand to aFGF at 50% inhibition of aggregation): Table 1; for stabilization of aFGF against heat-induced aggregation: 0.5X and 10X ligand, FIGS. 6-8
Text: Stabilization of aFGF can be determined by several independent methods including turbidity measurements, spectroscopic techniques, maintenance of protein mass, mitogenic activity and copper catalyzed oxidation. Since acidic fibroblast growth factor is unstable at physiological temperatures (undergoing large structural changes, including aggregation, which results in a loss of mitogenic and wound healing activity), human aFGF stability can be monitored by evaluating the turbidity of the pharmaceutical composition by following the kinetics of temperature induced aggregation of unfolded protein.
The kinetics of protein aggregation (stabilization) are monitored by the degree of light scattering at about OD350 nm using a Perkin Elmer Lambda 6 UV-visible spectrophotometer equipped with a six-cuvette holder. Temperature is controlled by circulating a water/ethylene glycol solution through the cell holder. About 0.9 ml of a PBS solution (6 mM sodium phosphate, 120 mM NaCl, pH 7.2) was placed into a cuvette and incubated at the appropriate temperature within the spectrophotometer. Once equilibrated, 100 μl of a 1 mg/ml aFGF solution containing the appropriate amount of ligand (stabilizer) is added to the cuvette and mixed manually by inversion. The change in optical density at 350 nm over time is continuously monitored. A dead time of 30s was present due to the mixing of the six samples in each experiment.
To examine the interactions between aFGF and heparin, a spectrophotometric turbidity assay was developed. This technique monitors the structural stability of aFGF by following the kinetics of temperature induced aggregation of unfolded protein by measurement of the degree of light scattering (turbidity) at 350 nm. The kinetics of protein aggregation were monitored by the degree of light scattering at 350 nm using a Perkin Elmer Lambda 6 UV-visible spectrophotometer equipped with a six-cuvette holder. Temperature was controlled by circulating a water/ethylene glycol solution through the cell holder. A PBS solution, 0.9 ml, (6 mM phosphate, 120 mM NaCl pH 7.2) was placed into a cuvette and incubated at the appropriate temperature within the spectrophotometer. Once equilibrated, 100 μl of a 1 mg/ml aFGF solution containing the appropriate amount of ligand was added to the cuvette and mixed manually by inversion. The change in optical density at 350 nm over time was continuously monitored. A dead time of 30s was present due to the mixing of the six samples in each experiment.
Samples contained 100 μg/ml aFGF in a PBS buffer at pH 7.2 with the indicated ratio of heparin to aFGF (wt:wt).
Samples contained 100 μg/ml protein in a PBS buffer, pH 7.2 with (a) no heparin, (b) 1.5 μg/ml, (c) 3 μg/ml, (d) 5 μg/ml, (e) 10 μg/ml and (f) 50 μg/ml heparin. Only representative data points are shown for clarity. […] Using the initial linear portion of the slope of turbidity vs. time plots as a measure of the rate of aggregation, the effect of polyanion concentration can be quantitatively characterized. The Y-axis represents the maximum rate of turbidity formation (ΔOD350 nm/min) normalized to sample (a) containing no heparin. The curve is drawn through data points for clarity only. The IC50 is the concentration of ligand at which the rate of aggregation is 50% of the control sample.

[2] = molecular target: T1, aFGF (Homo sapiens, UniProt P05230); assay: Thermal denaturation (Tm) of aFGF by circular dichroism; assay type: biochemical; conditions: for Tm of aFGF, circular dichroism: 3X ligand by weight
T1 construct: The recombinant derived, 140 amino add form is the preferred form of aFGF; N-terminal methionine (MetHaFGF); made in house; host or cells: microbial cells (preferred embodiment)
T1 sequence (P05230 16-155 limits assumed): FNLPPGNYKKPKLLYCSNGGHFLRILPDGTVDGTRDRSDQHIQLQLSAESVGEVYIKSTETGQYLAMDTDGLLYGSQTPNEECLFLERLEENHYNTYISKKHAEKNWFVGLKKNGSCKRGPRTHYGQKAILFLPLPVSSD
Description: Circular Dichroism (CD) spectra are measured with an AVIV 62 DS spectropolarimeter. Samples of aFGF at about 100 μg/ml in a PBS buffer (6 mM sodium phosphate, 120 mM NaCl, pH 7.2) containing various ligands are placed into 1 mm pathlength cells and the cell temperature is controlled by circulating a water/ethylene glycol mixture through the cell holder. Thermal denaturation is carded out under computer control by increasing the temperature of the water bath in 2° C. increments, followed by a two-minute equilibration period at each temperature to allow the sample to reach thermal equilibrium. Reproducibility of the midpoint of these temperature melting curves (Tm) is ±2° C.
The maximum Tm values induced by 12 different ligands as determined by circular dichroism measurements at 228 nm are summarized in the first column of Table II. All of these ligands stabilize aFGF by 15°-25° C. in a manner similar to that originally observed with heparin. […] Furthermore, sulfate unions are found near analogous residues in the crystal structure of basic FGF, Eriksson et al., Proc. Natl. Acad. Sd. USA 88:3441-3445 (1991); Zhang et al., Proc. Natl. Acad. Sci. USA 88:3446-3450 (1991). Consequently, it seemed important to examine the ability of these ligands to stabilize aFGF during thermal denaturation as monitored by both fluorescence and circular dichroism. The Tm value of aFGF increased from 27° C. to 43° C. (fluorescence)and 45° C. to 51° C. (CD) when a 100 molar excess (3X by weight) of (IrCl6)^-3 was present. Similarly, sulfate union (120 mM) produced a species that was even more dramatically stabilized, melting at 57° C. (CD).
^(a) Thermal melting temperatures were measured by circular dichroism
Samples contained […] aFGF in PBS buffer pH 7.2 with excess ligand
(1-3× by weight except for 120 mM sodium sulfate and 10 mM

[3] = 40° C., 100 μg/ml aFGF, PBS pH 7.2
[4] = 40° C., 100 μg/ml aFGF, PBS pH 7.2, read-out: IC50: concentration of ligand at which the rate of heat-induced aggregation of aFGF is 50% of the sample without ligand (converted)

Chain of acidic FGF (aFGF) (P05230 16-155 limits assumed): as above

Approx. Molar Ratio (ligand to aFGF at 50% inhibition of aggregation) ([1]; 40° C.) | IC50 [1, 4] [µM] | Molecule | stabilization of aFGF against heat-induced aggregation ([1]; 40° C.) | further results
– | – | chondroitin sulfate A | – | effect on rate and extent of aggregation of aFGF ([1]; 40° C., 0.5X ligand by weight): only a slight effect; effect on rate and extent of aggregation of aFGF ([1]; 40° C., 10X ligand by weight): significantly slows down the rate and extent of aggregation
0.5 | 3 | Nc1ncnc2c1ncn2[C@@H]1O[C@H](COP(=O)(O)OP(=O)(O)OP(=O)(O)OP(=O)(O)OP(=O)(O)OP(=O)(O)OC[C@H]2O[C@@H](n3cnc4c(N)ncnc43)[C@H](O)[C@@H]2O)[C@@H](O)[C@H]1O [Ap6A] | – | –
– | – | Fucoidin | dramatically stabilize aFGF from heat-induced aggregation | IC50: concentration of ligand at which the rate of heat-induced aggregation of aFGF is 50% of the sample without ligand [1, 3]: 6 µg/mL
5 | 30 | Nc1ncnc2c1ncn2[C@@H]1O[C@H](COP(=O)(O)OP(=O)(O)OP(=O)(O)OP(=O)(O)OC[C@H]2O[C@@H](n3cnc4c(N)ncnc43)[C@H](O)[C@@H]2O)[C@@H](O)[C@H]1O [Ap4A] | – | –
– | – | Chondroitin Sulfate B | – | IC50: concentration of ligand at which the rate of heat-induced aggregation of aFGF is 50% of the sample without ligand [1, 3]: 50 µg/mL; effect on rate and extent of aggregation of aFGF ([1]; 40° C., 0.5X ligand by weight): only a slight effect; effect on rate and extent of aggregation of aFGF ([1]; 40° C., 10X ligand by weight): significantly slows down the rate and extent of aggregation
– | – | poly-glutamic acid | significantly enhance the thermal stability of aFGF | –
1.6 | 10 | Nc1ncnc2c1ncn2[C@@H]1O[C@H](COP(=O)(O)OP(=O)(O)OP(=O)(O)OP(=O)(O)OP(=O)(O)OC[C@H]2O[C@@H](n3cnc4c(N)ncnc43)[C@H](O)[C@@H]2O)[C@@H](O)[C@H]1O [Ap5A] | – | –
80 | 502 | O=C(O)[C@H](O)[C@@H](O)[C@H](O[C@@H]1O[C@H](CO)[C@H](O)[C@H](O)[C@H]1O)[C@H](O)CO [Lactobionic acid] | – | number of ligand molecules per aFGF (molar ratio) required for stabilization ([1]; 40° C.): about 80
– | – | chondroitin sulfate C | – | effect on rate and extent of aggregation of aFGF ([1]; 40° C., 0.5X ligand by weight): only a slight effect; effect on rate and extent of aggregation of aFGF ([1]; 40° C., 10X ligand by weight): significantly slows down the rate and extent of aggregation
– | – | polyaspartic acid [poly-Asp] | significantly enhance the thermal stability of aFGF | –
– | – | Nc1ncnc2nc[nH]c12.O=S(=O)(O)O [adenine sulfate] | actually alestabilize the growth factor | –
– | – | OC[C@H]1O[C@@H]2O[C@H]3[C@H](O)[C@@H](O)[C@@H](O[C@H]4[C@H](O)[C@@H](O)[C@@H](O[C@H]5[C@H](O)[C@@H](O)[C@@H](O[C@H]6[C@H](O)[C@@H](O)[C@@H](O[C@H]7[C@H](O)[C@@H](O)[C@@H](O[C@H]8[C@H](O)[C@@H](O)[C@@H](O[C@H]1[C@H](O)[C@H]2O)O[C@@H]8CO)O[C@@H]7CO)O[C@@H]6CO)O[C@@H]5CO)O[C@@H]4CO)O[C@@H]3CO [β-cyclodextrin (sulfur content zero), β-cyclodextrin] | – | Tm of aFGF, circular dichroism [2]: 46 °C
42 | 250 | Nc1ncnc2c1ncn2[C@@H]1O[C@H](COP(=O)(O)OP(=O)(O)OP(=O)(O)OC[C@H]2O[C@@H](n3cnc4c(N)ncnc43)[C@H](O)[C@@H]2O)[C@@H](O)[C@H]1O [Ap3A] | – | –
1.6 | 10 | Nc1ncnc2c1ncn2[C@@H]1O[C@H](COP(=O)(O)OP(=O)(O)OP(=O)(O)OP(=O)(O)O)[C@@H](O)[C@H]1O [AT4P] | – | –
– | – | polyvinyl sulfate | much less effective | –
– | – | propyl-hydroxy-β- cyclodextrin | – | stabilization of aFGF, circular dichroism ([2]; 3X by weight): did not stabilize addic FGF; Tm of aFGF, circular dichroism [2]: 47 °C
– | – | sulodexide [reference compound] | dramatically stabilize aFGF from heat-induced aggregation | –
– | – | keratan sulfate | much less effective | –

Molecule | Approx. Molar Ratio (ligand to aFGF at 50% inhibition of aggregation) ([1]; 40° C.) | IC50 [1, 4] [µM] | stabilization of aFGF against heat-induced aggregation ([1]; 40° C.) | further results
N.N.O=S(=O)(O)O [Ammonium sulfate, ammonium sulfate] | 80 | – | – | number of ligand molecules per aFGF (molar ratio) required for stabilization ([1]; 40° C.): about 80; IC50: concentration of ligand at which the rate of heat-induced aggregation of aFGF is 50% of the sample without ligand [1, 3]: 70 µg/mL
Nc1ncnc2c1ncn2[C@@H]1O[C@H](COP(=O)(O)OP(=O)(O)OP(=O)(O)O)[C@@H](O)[C@H]1O [ATP] | 5 | – | significantly enhance the thermal stability of aFGF | IC50 [1]: 30 µM
Nc1ncnc2c1ncn2[C@@H]1O[C@H](COP(=O)(O)OP(=O)(O)O)[C@@H](O)[C@H]1O [ADP] | 33 | 200 | – | –

— patent US5348941A, “Stabilizers for fibroblast growth factors” (Merck & Co., Inc., priority 1992, dated 1994)
